Results published in the NIST ThermoML archive (doi:10.1021/acs.jced.8b00554).

Experiment: xn = mol fraction of the nth substance listed
Details: Liquid, Vibrating tube method

CCCCCCCC [octane] + CCCO
mass density [kg/m3]
Details | 353.15 K | 363.15 K
100 kPa, x2 = 0.1631 | – | 643.75
100 kPa, x2 = 0.2111 | – | 645.23
100 kPa, x2 = 0.3158 | – | 649.43
100 kPa, x2 = 0.4411 | – | 656.74
100 kPa, x2 = 0.7301 | – | 685.03
100 kPa, x2 = 0.8823 | – | 711.1
1000 kPa, x2 = 0.2111 | – | 646.4
1010 kPa, x2 = 0.1631 | – | 644.92
1010 kPa, x2 = 0.3158 | – | 650.63
1020 kPa, x2 = 0.4411 | – | 658.07
1020 kPa, x2 = 0.7301 | – | 686.21
1020 kPa, x2 = 0.8823 | – | 712.01
2000 kPa, x2 = 0.3158 | – | 652.01
2000 kPa, x2 = 0.4411 | – | 659.42
2000 kPa, x2 = 0.7301 | – | 687.5
2000 kPa, x2 = 0.8823 | – | 713.23
2010 kPa, x2 = 0.1631 | – | 646.32
2010 kPa, x2 = 0.2111 | – | 647.77
3000 kPa, x2 = 0.1631 | – | 647.65
3010 kPa, x2 = 0.3158 | – | 653.38
3010 kPa, x2 = 0.4411 | – | 660.78
3010 kPa, x2 = 0.8823 | – | 714.49
3020 kPa, x2 = 0.2111 | – | 649.11
3020 kPa, x2 = 0.7301 | – | 688.81
4010 kPa, x2 = 0.2111 | – | 650.5
4010 kPa, x2 = 0.3158 | – | 654.7
4010 kPa, x2 = 0.4411 | – | 662.14
4010 kPa, x2 = 0.8823 | – | 715.75
4020 kPa, x2 = 0.1631 | – | 649
4020 kPa, x2 = 0.7301 | – | 690.17
5000 kPa, x2 = 0.2111 | – | 651.8
5000 kPa, x2 = 0.3158 | – | 656.03
5000 kPa, x2 = 0.7301 | – | 691.49
5010 kPa, x2 = 0.1631 | – | 650.29
5010 kPa, x2 = 0.8823 | – | 716.99
5020 kPa, x2 = 0.4411 | – | 663.46
6000 kPa, x2 = 0.8823 | – | 718.21
6010 kPa, x2 = 0.1631 | – | 651.6
6010 kPa, x2 = 0.2111 | – | 653.06
6020 kPa, x2 = 0.3158 | – | 657.34
6020 kPa, x2 = 0.4411 | – | 664.8
6020 kPa, x2 = 0.7301 | – | 692.76
7000 kPa, x2 = 0.1631 | – | 652.93
7000 kPa, x2 = 0.3158 | – | 658.67
7000 kPa, x2 = 0.4411 | – | 666.13
7010 kPa, x2 = 0.2111 | – | 654.35
7020 kPa, x2 = 0.7301 | – | 694.08
7020 kPa, x2 = 0.8823 | – | 719.45
8000 kPa, x2 = 0.3158 | – | 660
8010 kPa, x2 = 0.1631 | – | 654.22
8010 kPa, x2 = 0.2111 | – | 655.68
8010 kPa, x2 = 0.8823 | – | 720.66
8020 kPa, x2 = 0.4411 | – | 667.45
8020 kPa, x2 = 0.7301 | – | 695.38
9000 kPa, x2 = 0.1631 | – | 655.49
9000 kPa, x2 = 0.8823 | – | 721.91
9010 kPa, x2 = 0.3158 | – | 661.3
9010 kPa, x2 = 0.4411 | – | 668.75
9010 kPa, x2 = 0.7301 | – | 696.66
9020 kPa, x2 = 0.2111 | – | 656.97
10000 kPa, x2 = 0.1631 | – | 656.77
10000 kPa, x2 = 0.4411 | – | 670.08
10010 kPa, x2 = 0.2111 | – | 658.25
10010 kPa, x2 = 0.3158 | 674.1 | –
10010 kPa, x2 = 0.4411 | 682.1 | –
10010 kPa, x2 = 0.7301 | 710.33 | –
10010 kPa, x2 = 0.8823 | – | 723.12
10020 kPa, x2 = 0.3158 | – | 662.62
10020 kPa, x2 = 0.7301 | – | 697.93
11000 kPa, x2 = 0.1631 | 668.3 | 658.05
11000 kPa, x2 = 0.4411 | – | 671.35
11000 kPa, x2 = 0.7301 | 711.46 | –
11000 kPa, x2 = 0.8823 | 735.72 | –
11010 kPa, x2 = 0.2111 | – | 659.52
11010 kPa, x2 = 0.3158 | – | 663.89
11010 kPa, x2 = 0.4411 | 683.25 | –
11010 kPa, x2 = 0.7301 | – | 699.17
11020 kPa, x2 = 0.2111 | 670.17 | –
11020 kPa, x2 = 0.3158 | 675.25 | –
11020 kPa, x2 = 0.8823 | – | 724.31
12000 kPa, x2 = 0.1631 | – | 659.27
12000 kPa, x2 = 0.2111 | 671.35 | –
12000 kPa, x2 = 0.3158 | 676.4 | –
12000 kPa, x2 = 0.4411 | 684.41 | –
12000 kPa, x2 = 0.7301 | 712.61 | –
12000 kPa, x2 = 0.8823 | – | 725.46
12010 kPa, x2 = 0.1631 | 669.46 | –
12010 kPa, x2 = 0.2111 | – | 660.8
12010 kPa, x2 = 0.3158 | – | 665.14
12020 kPa, x2 = 0.4411 | – | 672.6
12020 kPa, x2 = 0.7301 | – | 700.4
12020 kPa, x2 = 0.8823 | 736.81 | –
13000 kPa, x2 = 0.3158 | 677.55 | 666.41
13000 kPa, x2 = 0.4411 | – | 673.84
13000 kPa, x2 = 0.8823 | – | 726.58
13010 kPa, x2 = 0.1631 | 670.56 | 660.51
13010 kPa, x2 = 0.2111 | – | 662.01
13010 kPa, x2 = 0.7301 | – | 701.64
13010 kPa, x2 = 0.8823 | 737.84 | –
13020 kPa, x2 = 0.2111 | 672.46 | –
13020 kPa, x2 = 0.4411 | 685.53 | –
13020 kPa, x2 = 0.7301 | 713.71 | –
14000 kPa, x2 = 0.1631 | 671.69 | –
14000 kPa, x2 = 0.3158 | 678.66 | –
14000 kPa, x2 = 0.4411 | 686.68 | –
14000 kPa, x2 = 0.7301 | 714.83 | –
14010 kPa, x2 = 0.1631 | – | 661.7
14010 kPa, x2 = 0.2111 | 673.57 | 663.23
14010 kPa, x2 = 0.3158 | – | 667.62
14010 kPa, x2 = 0.7301 | – | 702.82
14010 kPa, x2 = 0.8823 | 738.9 | –
14020 kPa, x2 = 0.4411 | – | 675.08
14020 kPa, x2 = 0.8823 | – | 727.76
15000 kPa, x2 = 0.4411 | 687.73 | –
15000 kPa, x2 = 0.8823 | 739.94 | 728.85
15010 kPa, x2 = 0.1631 | 672.77 | 662.89
15010 kPa, x2 = 0.4411 | – | 676.25
15010 kPa, x2 = 0.7301 | – | 704
15020 kPa, x2 = 0.2111 | 674.7 | 664.4
15020 kPa, x2 = 0.3158 | 679.74 | 668.79
15020 kPa, x2 = 0.7301 | 715.89 | –
16000 kPa, x2 = 0.3158 | – | 669.98
16000 kPa, x2 = 0.8823 | – | 729.97
16010 kPa, x2 = 0.1631 | 673.82 | –
16010 kPa, x2 = 0.2111 | 675.76 | 665.57
16010 kPa, x2 = 0.3158 | 680.86 | –
16010 kPa, x2 = 0.7301 | 716.98 | 705.17
16010 kPa, x2 = 0.8823 | 740.94 | –
16020 kPa, x2 = 0.1631 | – | 664
16020 kPa, x2 = 0.4411 | 688.85 | 677.45
17000 kPa, x2 = 0.1631 | 674.88 | –
17000 kPa, x2 = 0.3158 | 681.92 | –
17000 kPa, x2 = 0.4411 | 689.88 | –
17000 kPa, x2 = 0.7301 | – | 706.32
17000 kPa, x2 = 0.8823 | – | 731.02
17010 kPa, x2 = 0.1631 | – | 665.15
17010 kPa, x2 = 0.3158 | – | 671.18
17010 kPa, x2 = 0.4411 | – | 678.56
17010 kPa, x2 = 0.7301 | 718.02 | –
17020 kPa, x2 = 0.2111 | 676.83 | 666.77
17020 kPa, x2 = 0.8823 | 741.94 | –
18000 kPa, x2 = 0.8823 | – | 732.11
18010 kPa, x2 = 0.1631 | 675.92 | –
18010 kPa, x2 = 0.2111 | 677.86 | –
18010 kPa, x2 = 0.3158 | – | 672.26
18010 kPa, x2 = 0.4411 | 690.94 | 679.72
18010 kPa, x2 = 0.7301 | 719.02 | –
18010 kPa, x2 = 0.8823 | 742.92 | –
18020 kPa, x2 = 0.1631 | – | 666.27
18020 kPa, x2 = 0.2111 | – | 667.86
18020 kPa, x2 = 0.3158 | 682.96 | –
18020 kPa, x2 = 0.7301 | – | 707.41
19000 kPa, x2 = 0.1631 | 676.89 | 667.34
19000 kPa, x2 = 0.4411 | – | 680.79
19000 kPa, x2 = 0.8823 | – | 733.13
19010 kPa, x2 = 0.2111 | 678.87 | 668.92
19010 kPa, x2 = 0.3158 | 683.98 | 673.36
19010 kPa, x2 = 0.4411 | 691.96 | –
19010 kPa, x2 = 0.7301 | 720.02 | 708.47
19010 kPa, x2 = 0.8823 | 743.88 | –
20000 kPa, x2 = 0.7301 | 721.02 | –
20000 kPa, x2 = 0.8823 | 744.83 | –
20010 kPa, x2 = 0.1631 | 677.88 | 668.36
20010 kPa, x2 = 0.2111 | – | 669.97
20010 kPa, x2 = 0.3158 | 684.96 | 674.4
20010 kPa, x2 = 0.4411 | 692.97 | –
20020 kPa, x2 = 0.2111 | 679.82 | –
20020 kPa, x2 = 0.4411 | – | 681.9
20020 kPa, x2 = 0.7301 | – | 709.58
20020 kPa, x2 = 0.8823 | – | 734.15
